The results in this text go back to patent US20170275270A1, “BENZYL SUBSTITUTED INDAZOLES” (Bayer Pharma Aktiengesellschaft, priority 2014, published 2017).

One test addresses Bub1 (Homo sapiens, UniProt O43683). Description: Formation-Assay: phosphorylation status of histone 2A by inhibition of kinase activity of Bub1. It is filed as cell-based. To be noted: Biological Assay 4.1: H2A Formation IC50, co-treatment with Nocodazole 1 μg/ml, 16 h. On the procedure: Biological Assay 4.1: Formation-Assay
Cell-Based Mechanistic Assay: Changes of Phosphorylation Status of Histone 2A by Inhibition of Kinase Activity of Bub1
This assay determines the suppression of histone 2A phosphorylation by a Bub1 kinase inhibitor during co-treatment with Nocodazole. 25000 cells (cells were ordered from ATCC) were seeded in 96 well plate for 5 h at 37° C. Cells were treated with Nocodazole (1 μg/ml) and varying concentrations (between 3 nM and 10 μM) of test compounds for 16 h. Cells were fixed (20 min, Fixing solution R&D), washed three times with PBS and blocked with Odyssey blocking buffer before incubating with the primary antibody against phosphorylated H2A (5 μg/ml ABIN482721) overnight at 2-8° C. After washing, secondary IRDye-labeled antibody mix with cell stains was added for 1 h and washed again with PBS. Plates were scanned with LiCor Odyssey Infrared Imager CLx at 800 nm for P-H2A and at 700 nm for cell stains Draq5/Sapphire. The quotient of 800 nm and 700 nm for Nocodazole only treated cells was set as 100% and the quotient of 800 nm and 700 nm of untreated cells was set as 0%.
Histone H2A is an immediate intracellular substrate of Bub1 kinase. Determination of the phosphorylation status of Histone H2A provides a direct measure of the intracellular activity of Bub1 kinase.

In test [1] the target is T1, catalytic domain of human Bub1 (amino acids 704-1085) (Homo sapiens, UniProt O43683).
T1 construct: catalytic domain of human Bub1 (amino acids 704-1085); His6 (N); made in house; host or cells: Hi5 insect cells
T1 sequence (O43683 704-1085): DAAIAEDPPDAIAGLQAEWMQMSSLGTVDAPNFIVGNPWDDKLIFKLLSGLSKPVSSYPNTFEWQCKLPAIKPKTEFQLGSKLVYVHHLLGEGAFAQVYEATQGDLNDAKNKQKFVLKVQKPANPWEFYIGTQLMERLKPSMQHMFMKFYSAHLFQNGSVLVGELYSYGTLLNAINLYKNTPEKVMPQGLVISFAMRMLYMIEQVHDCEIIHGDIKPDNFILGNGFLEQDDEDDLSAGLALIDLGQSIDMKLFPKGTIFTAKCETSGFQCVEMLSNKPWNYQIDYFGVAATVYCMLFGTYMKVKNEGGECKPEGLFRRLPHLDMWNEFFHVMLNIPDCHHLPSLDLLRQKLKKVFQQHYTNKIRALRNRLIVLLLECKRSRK
Description: Bub1 kinase assay (TR-FRET). It counts as biochemical. In a few lines:
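TR-FRET read-out (Eu-anti-mouse IgG/anti-phosphoserine antibody to streptavidin-XL665 on biotinylated peptide) after EDTA stop and 1 h complex formation at 22° C. Kinase reaction ran 60 min at 22° C with 1:3.4 serial dilutions from 2 mM DMSO stocks. IC50 from 4-parameter logistic fit of normalized inhibition.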
In general terms: In TR-FRET formats the signal depends on donor and acceptor labels being close together.

The next test concerns HeLa. The test is described as follows: Proliferation assay (HeLa cell line).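 Further: crystal violet staining of cell number, scaled between a plate stained before dosing (0%) and cells left untreated (100%), compounds tested at 0.001-10 µM, IC50 via 4-parameter fit.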 To be noted: Homo sapiens, 96 h, read-out: Biological Assay 2: Proliferation assay (HeLa cell line) median IC50.
Test [2] has as its system HeLa human cervical tumor cells. The test is described as follows: Proliferation assay (HeLa+Paclitaxel).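 Further: compounds at 0.001-10 µM added 4 h after paclitaxel, 92 h exposure, absorbance normalized to zero-point plate (0%) and untreated cells (100%), IC50 from 4-parameter fit.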 The following applies: read-out: Biological Assay 3: HeLa + Paclitaxel IC50, 3 nM paclitaxel, crystal violet.
Description: Proliferation Assay (HeLa+Paclitaxel):
Cultivated HeLa human cervical tumor cells (DSMZ ACC-57) were plated at a density of 3000 cells/well in a 96-well multititer plate in 200 μL of growth medium supplemented 10% fetal calf serum. After 24 hours, the cells of one plate (zero-point plate) were stained with crystal violet (see below). The medium of the other plates was supplemented with 3 nM of paclitaxel (Sigma-Aldrich) and the cells were incubated at 37° C. After 4 hours the test substances were added in various concentrations (0 μM, as well as in the range of 0.001-10 μM; the final concentration of the solvent dimethyl sulfoxide was adjusted to 0.1%) using a Hewlett-Packard HP D300 Digital Dispenser. The cells were incubated for another 92 hours at 37° C. in the presence of test substances. Cell proliferation was determined by staining the cells with crystal violet: the cells were fixed by adding 20 μL/measuring point of an 11% glutaric aldehyde solution for 15 minutes at room temperature. After three washing cycles of the fixed cells with water, the plates were dried at room temperature. The cells were stained by adding 100 μL/measuring point of a 0.1% crystal violet solution (pH 3.0). After three washing cycles of the stained cells with water, the plates were dried at room temperature. The dye was dissolved by adding 100 μL/measuring point of a 10% acetic acid solution. […] The change of cell number, in percent, was calculated by normalization of the measured values to the absorbtion values of the zero-point plate (=0%) and the absorbtion of the untreated (0 μm) cells (=100%). The IC50 values were determined by means of a 4 parameter fit.
The mark [3] stands for this setting: Biological Assay 1: Bub1 kinase assay median IC50, 10 μM ATP.
The mark [4] stands for this setting: 10 μM ATP, read-out: Biological Assay 1: Bub1 kinase assay median IC50.

pIC50: −log10 of the molar value. Where a name gives a salt, the structure may show the parent alone. Read-outs that look alike come from different tables or passages of the source. Where only a bound is given, the exact number is not on record here.

Bub1, sequence (O43683 whole entry): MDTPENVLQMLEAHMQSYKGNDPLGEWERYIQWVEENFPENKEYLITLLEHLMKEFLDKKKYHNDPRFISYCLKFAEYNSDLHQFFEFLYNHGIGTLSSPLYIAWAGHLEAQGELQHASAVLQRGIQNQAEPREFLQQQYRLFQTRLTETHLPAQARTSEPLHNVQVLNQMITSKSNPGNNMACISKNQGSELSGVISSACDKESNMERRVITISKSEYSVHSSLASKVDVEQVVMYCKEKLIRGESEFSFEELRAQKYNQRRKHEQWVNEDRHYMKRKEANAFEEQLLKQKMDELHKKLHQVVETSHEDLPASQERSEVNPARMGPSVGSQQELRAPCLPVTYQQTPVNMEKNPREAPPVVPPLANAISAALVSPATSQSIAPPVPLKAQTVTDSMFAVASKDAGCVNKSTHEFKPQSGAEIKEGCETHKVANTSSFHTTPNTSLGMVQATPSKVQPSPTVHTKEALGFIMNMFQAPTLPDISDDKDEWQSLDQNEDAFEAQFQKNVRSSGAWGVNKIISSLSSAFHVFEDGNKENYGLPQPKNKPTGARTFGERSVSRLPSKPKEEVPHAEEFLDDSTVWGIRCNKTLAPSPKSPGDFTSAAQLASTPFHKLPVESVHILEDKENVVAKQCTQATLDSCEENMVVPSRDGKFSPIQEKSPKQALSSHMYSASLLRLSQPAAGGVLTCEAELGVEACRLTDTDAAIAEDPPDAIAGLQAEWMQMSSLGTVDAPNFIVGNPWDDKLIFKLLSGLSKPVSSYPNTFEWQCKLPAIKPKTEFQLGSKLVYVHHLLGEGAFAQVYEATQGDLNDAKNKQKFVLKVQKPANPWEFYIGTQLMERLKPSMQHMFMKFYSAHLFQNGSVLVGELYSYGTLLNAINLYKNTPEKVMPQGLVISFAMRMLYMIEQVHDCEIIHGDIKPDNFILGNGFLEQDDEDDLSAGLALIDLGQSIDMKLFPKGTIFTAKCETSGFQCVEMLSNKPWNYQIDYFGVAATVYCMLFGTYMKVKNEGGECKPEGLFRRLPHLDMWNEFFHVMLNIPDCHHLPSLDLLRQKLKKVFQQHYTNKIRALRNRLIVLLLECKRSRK

Consider `CCOc1cc(F)c(Cn2nc(-c3ncc(C4CCN(CC(F)(F)F)CC4)c(Nc4ccncn4)n3)c3ccccc32)c(F)c1` [Example 2-20-3, 2-[1-(4-ethoxy-2,6-difluorobenzyl)-1H-indazol-3-yl]-N-(pyrimidin-4-yl)-5-[1-(2,2,2-trifluoroethyl)piperidin-4-yl]pyrimidin-4-amine], for which the pIC50 at Bub1 was 8.66; in test [1] (setting [3]), 7.59; in the test on HeLa, < 5.00; in test [2], 6.01.

For the compound `CCOc1cc(F)c(Cn2nc(-c3ncc4c(n3)N(c3ccncc3)C[C@H]4CNCC(F)(F)F)c3ccccc32)c(F)c1` [Example 2-11-3, N-({2-[1-(4-ethoxy-2,6-difluorobenzyl)-1H-indazol-3-yl]-7-(pyridin-4-yl)-6,7-dihydro-5H-pyrrolo[2,3d]pyr-imidin-5-yl}methyl)-2,2,2-trifluoroethanamine], the pIC50 at Bub1 is 7.03; in test [1] (setting [3]) it was 7.92; in the test on HeLa it was 5.52; in test [2] it was 7.00.

As for `CCOc1cc(F)c(Cn2nc(-c3nc(CN4CCOCC4)cc(Nc4ccnc(C)c4)n3)c3ccccc32)c(F)c1` [Example 2-19-9, 2-[1-(4-ethoxy-2,6-difluorobenzyl)-1H-indazol-3-yl]-N-(2-methylpyridin-4-yl)-6-(morpholin-4-ylmethyl)pyrimidin-4-amine], the pIC50 is 7.74 at Bub1, 7.64 in test [1] (setting [4]), 5.89 in the test with HeLa and 7.12 in test [2].

Take `CCOc1cc(F)c(Cn2nc(-c3ncc(C4CCNCC4)c(Nc4ccnc(NC(C)=O)c4)n3)c3ccccc32)c(F)c1` [Example 2-17-2, N-[4-({2-[1-(4-ethoxy-2,6-difluorobenzyl)-1H-indazol-3-yl]-5-(piperidin-4-yl)pyrimidin-4-yl}amino)pyridin-2-yl]acetamide]: the pIC50 at Bub1 was 8.32; in test [1] (setting [3]) it was 8.07; in the test on HeLa, 5.51; in test [2], 6.72.

Take `CCOc1cc(F)c(Cn2nc(-c3nc(C)c(F)c(Nc4ccnc(C(F)(F)F)c4)n3)c3ccccc32)c(F)c1` [Example 2-12-21, 2-[1-(4-ethoxy-2,6-difluorobenzyl)-1H-indazol-3-yl]-5-fluoro-6-methyl-N-[2-(trifluoromethyl)pyridin-4-yl]pyrimidin-4-amine]: the pIC50 is 7.42 on Bub1, < 5.00 in the test on HeLa and 6.17 in test [2].

Take `Cc1nccc(Nc2nc(-c3nn(Cc4c(F)cc(OCCO)cc4F)c4ccccc34)nc3c2CCC3)n1` [Example 2-6-18, 2-{3,5-difluoro-4-[(3-{4-[(2-methylpyrimidin-4-yl)amino]-6,7-dihydro-5H-cyclopenta[d]pyrimidin-2-yl}-1H-indazol-1-yl)methyl]phenoxy}ethanol]: the pIC50 on Bub1 was 9.10; in test [1] (setting [3]), 7.52; with HeLa, < 5.00; in test [2], 7.05.

With `CCOc1cc(F)c(Cn2nc(-c3nc(C)c(F)c(Nc4ccncc4)n3)c3ccccc32)c(F)c1` [Example 2-12-5, 2-[1-(4-ethoxy-2,6-difluorobenzyl)-1H-indazol-3-yl]-5-fluoro-6-methyl-N-(pyridin-4-yl)pyrimidin-4-amine], the pIC50 on Bub1 is 6.41; in test [1] (setting [4]), 8.19; in the test with HeLa, 5.89; in test [2] it was 6.04.

As to `CCOc1cc(F)c(Cn2nc(-c3ncc(CCCS(C)(=O)=O)c(Nc4ccncc4)n3)c3ccccc32)c(F)c1` [Example 2-3-2, 2-[1-(4-ethoxy-2,6-difluorobenzyl)-1H-indazol-3-yl]-5-[3-(methylsulfonyl)propyl]-N-(pyridin-4-yl)pyrimidin-4-amine], the pIC50 at Bub1 was 6.00; in test [1] (setting [3]), 8.05; in the test on HeLa, 5.55.

`CCOc1cc(F)c(Cn2nc(-c3nc(Nc4cc(C)ncc4C)cc(C(F)(F)F)n3)c3ccccc32)c(F)c1` [Example 2-12-82, N-(2,5-dimethylpyridin-4-yl)-2-[1-(4-ethoxy-2,6-difluorobenzyl)-1H-indazol-3-yl]-6-(trifluoromethyl)pyr-imidin-4-amine]: the pIC50 is 7.52 on Bub1 and < 4.70 in test [1] (setting [4]).

With `CCOc1cc(F)c(Cn2nc(-c3ncc(C4CCN(CC(F)F)CC4)c(Nc4ccncc4OC)n3)c3ccccc32)c(F)c1` [Example 2-11-5, 5-[1-(2,2-difluoroethyl)piper-idin-4-yl]-2-[1-(4-ethoxy-2,6-difluorobenzyl)-1H-indazol-3-yl]-N-(3-methoxypyridin-4-yl)pyrimidin-4-amine], the results for the pIC50 (at Bub1; in test [1] (setting [3]); in the test on HeLa) were 8.08, 7.64 and 5.77, respectively.

Consider `CC(=O)Nc1cc(Nc2nc(-c3nn(Cc4c(F)cc(OCCO)cc4F)c4ccccc34)nc3c2CCC3)ccn1` [Example 2-4-6, N-{4-[(2-{1-[2,6-difluoro-4-(2-hydroxyethoxy)benzyl]-1H-indazol-3-yl}-6,7-dihydro-5H-cyclopenta[d]pyrimidin-4-yl)amino]pyridin-2-yl}acetamide], for which the values for the pIC50 (at Bub1; in test [1] (setting [3]); in the test on HeLa) were 6.89, 8.00 and 5.68, respectively.

Turning to `CCOc1cc(F)c(Cn2nc(-c3ncc(OCC(=O)N4CC(F)(F)C4)c(Nc4ccncc4)n3)c3ccccc32)c(F)c1` [Example 3-5-1, 1-(3,3-difluoroazetidin-1-yl)-2-({2-[1-(4-ethoxy-2,6-difluorobenzyl)-1H-indazol-3-yl]-4-(pyridin-4-ylamino)pyrimidin-5-yl}oxy)ethanone, reference compound], the figures for the pIC50 (at Bub1; in test [1] (setting [3]); with HeLa) were 6.44, 8.10 and 5.41, respectively.

As for `Cc1nccc(Nc2nc(-c3nn(Cc4c(F)cc(OCCO)cc4F)c4ccccc34)ncc2C2CCN(CC(F)F)CC2)n1` [Example 2-6-17, 2-{4-[(3-{5-[1-(2,2-difluoroethyl)piperidin-4-yl]-4-[(2-methylpyrimidin-4-yl)amino]pyrimidin-2-yl}-1H-indazol-1-yl)methyl]-3,5-difluorophenoxy} ethanol], the pIC50 on Bub1 was 8.22; in test [1] (setting [3]) it was 7.24; in the test on HeLa, 5.17.

For `CCOc1cc(F)c(Cn2nc(-c3nc(C)cc(Nc4ccncc4C(N)=O)n3)c3ccccc32)c(F)c1` [Example 2-10-2, 4-({2-[1-(4-ethoxy-2,6-difluorobenzyl)-1H-indazol-3-yl]-6-methylpyrimidin-4-yl}amino)pyridine-3-carboxamide], the pIC50 is 6.85 at Bub1 and 8.26 in test [1] (setting [4]).

Regarding `CCOc1cc(F)c(Cn2nc(-c3ncc(C4CNC4)c(Nc4ccncc4)n3)c3ccccc32)c(F)c1` [Example 2-9-1, 5-(azetidin-3-yl)-2-[1-(4-ethoxy-2,6-difluorobenzyl)-1H-indazol-3-yl]-N-(pyridin-4-yl)pyrimidin-4-amine, salt with hydrochloric acid], the pIC50 was 7.77 at Bub1, 8.03 in test [1] (setting [4]) and 5.89 in the test on HeLa.

For the compound `CCOc1cc(F)c(Cn2nc(-c3ncc(CCS(C)(=O)=O)c(Nc4ccncc4)n3)c3ccccc32)c(F)c1` [Example 2-3-1, 2-[1-(4-ethoxy-2,6-difluorobenzyl)-1H-indazol-3-yl]-5-[2-(methylsulfonyl)ethyl]-N-(eparate-4-yl)pyrimidin-4-amine], the pIC50 was 5.64 on Bub1, 8.21 in test [1] (setting [3]) and 5.46 in the test with HeLa.

With `COCCOc1cc(F)c(Cn2nc(-c3nc(CN4CCOCC4)cc(Nc4ccncc4C)n3)c3ccccc32)c(F)c1` [Example 2-12-41, 2-{1-[2,6-difluoro-4-(2-methoxyethoxy)benzyl]-1H-indazol-3-yl}-N-(3-methylpyridin-4-yl)-6-(morpholin-4-ylmethyl)pyrimidin-4-amine], the pIC50 in test [1] (setting [3]) is 8.06; in the test with HeLa, 5.46; in test [2], 6.92.

As to `CCOc1cc(F)c(Cn2nc(-c3nc4c(c(Nc5ccnc(C(F)(F)F)c5)n3)CNCC4)c3ccccc32)c(F)c1` [Example 2-9-17, 2-[1-(4-ethoxy-2,6-difluorobenzyl)-1H-indazol-3-yl]-N-[2-(trifluorometh-yl)pyridin-4-yl]-5,6,7,8-tetrahydro-pyrido[4,3-d]pyr-imidin-4-amine], the pIC50 is 8.70 at Bub1, 5.68 with HeLa and 6.89 in test [2].
